ChEMBL document CHEMBL1155552, “New hydroxypyrimidinone-containing sulfonamides as carbonic anhydrase inhibitors also acting as MMP inhibitors” (Bioorg Med Chem Lett, 2010)

Key:
[1] = target: 72 kDa type IV collagenase (Homo sapiens) (UniProt P08253); experiment: Inhibition of MMP2 at 100 uM
[2] = target: 72 kDa type IV collagenase (Homo sapiens) (UniProt P08253); experiment: Inhibition of MMP2 at 30 uM
[3] = target: 72 kDa type IV collagenase (Homo sapiens) (UniProt P08253); experiment: Inhibition of MMP2 at 3 uM
[4] = target: T1, Matrilysin (Homo sapiens) (UniProt P09237); experiment: Inhibition of MMP7 at 100 uM
T1 sequence (whole entry): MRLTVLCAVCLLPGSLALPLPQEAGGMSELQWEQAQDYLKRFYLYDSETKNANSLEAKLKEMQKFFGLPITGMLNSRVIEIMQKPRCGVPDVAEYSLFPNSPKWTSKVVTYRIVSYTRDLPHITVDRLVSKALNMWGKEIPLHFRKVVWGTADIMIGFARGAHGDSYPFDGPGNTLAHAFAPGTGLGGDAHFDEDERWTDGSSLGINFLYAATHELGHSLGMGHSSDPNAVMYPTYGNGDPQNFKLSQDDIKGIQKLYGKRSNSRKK

[5] = target: Matrix metalloproteinase-9 (Homo sapiens) (UniProt P14780); experiment: Inhibition of MMP9 at 100 uM
Sequence of Matrix metalloproteinase-9 (Homo sapiens) (P14780 whole entry): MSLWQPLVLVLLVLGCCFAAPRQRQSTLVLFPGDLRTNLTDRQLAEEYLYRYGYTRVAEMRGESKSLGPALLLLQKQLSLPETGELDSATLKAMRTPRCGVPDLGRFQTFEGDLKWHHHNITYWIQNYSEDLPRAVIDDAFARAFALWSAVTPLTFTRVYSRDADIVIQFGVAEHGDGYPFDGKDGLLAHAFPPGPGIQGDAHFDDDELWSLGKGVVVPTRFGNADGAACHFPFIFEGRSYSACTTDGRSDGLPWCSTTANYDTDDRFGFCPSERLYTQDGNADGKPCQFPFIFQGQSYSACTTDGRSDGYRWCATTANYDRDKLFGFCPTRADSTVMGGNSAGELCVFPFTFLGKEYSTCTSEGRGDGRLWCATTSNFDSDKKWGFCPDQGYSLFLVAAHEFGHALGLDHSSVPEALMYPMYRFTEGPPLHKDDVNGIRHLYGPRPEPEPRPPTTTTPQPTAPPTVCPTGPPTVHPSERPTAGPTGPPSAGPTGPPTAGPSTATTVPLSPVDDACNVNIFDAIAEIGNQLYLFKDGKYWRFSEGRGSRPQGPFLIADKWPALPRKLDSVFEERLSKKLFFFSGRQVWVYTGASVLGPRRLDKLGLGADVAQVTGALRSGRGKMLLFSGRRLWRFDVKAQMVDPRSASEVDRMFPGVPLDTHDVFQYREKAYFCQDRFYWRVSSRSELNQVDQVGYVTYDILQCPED

[6] = target: Matrix metalloproteinase-9 (Homo sapiens) (UniProt P14780); experiment: Inhibition of MMP9 at 10 uM
[7] = target: Matrix metalloproteinase-9 (Homo sapiens) (UniProt P14780); experiment: Inhibition of MMP9 at 1 uM
[8] = target: Matrix metalloproteinase-14 (Homo sapiens) (UniProt P50281); experiment: Inhibition of MMP14 at 100 uM
[9] = target: Carbonic anhydrase 9 (Homo sapiens, UniProt Q16790)
Description: Inhibition of human carbonic anhydrase 9

[10] = target: 72 kDa type IV collagenase (Homo sapiens) (UniProt P08253); experiment: Inhibition of MMP2 at 300 uM
[11] = target: 72 kDa type IV collagenase (Homo sapiens) (UniProt P08253); experiment: Inhibition of MMP2 at 30 nM
[12] = target: T1, Matrilysin (Homo sapiens); experiment: Inhibition of MMP7 at 3 uM
[13] = target: Matrix metalloproteinase-9 (Homo sapiens) (UniProt P14780); experiment: Inhibition of MMP9 at 3 uM
[14] = target: Matrix metalloproteinase-9 (Homo sapiens) (UniProt P14780); experiment: Inhibition of MMP9 at 30 nM
[15] = target: Matrix metalloproteinase-14 (Homo sapiens) (UniProt P50281); experiment: Inhibition of MMP14 at 3 uM
[16] = target: Carbonic anhydrase 2 (Homo sapiens, UniProt P00918); experiment: Inhibition of human carbonic anhydrase 2

Sequence of 72 kDa type IV collagenase (Homo sapiens) (P08253 110-660 limits assumed): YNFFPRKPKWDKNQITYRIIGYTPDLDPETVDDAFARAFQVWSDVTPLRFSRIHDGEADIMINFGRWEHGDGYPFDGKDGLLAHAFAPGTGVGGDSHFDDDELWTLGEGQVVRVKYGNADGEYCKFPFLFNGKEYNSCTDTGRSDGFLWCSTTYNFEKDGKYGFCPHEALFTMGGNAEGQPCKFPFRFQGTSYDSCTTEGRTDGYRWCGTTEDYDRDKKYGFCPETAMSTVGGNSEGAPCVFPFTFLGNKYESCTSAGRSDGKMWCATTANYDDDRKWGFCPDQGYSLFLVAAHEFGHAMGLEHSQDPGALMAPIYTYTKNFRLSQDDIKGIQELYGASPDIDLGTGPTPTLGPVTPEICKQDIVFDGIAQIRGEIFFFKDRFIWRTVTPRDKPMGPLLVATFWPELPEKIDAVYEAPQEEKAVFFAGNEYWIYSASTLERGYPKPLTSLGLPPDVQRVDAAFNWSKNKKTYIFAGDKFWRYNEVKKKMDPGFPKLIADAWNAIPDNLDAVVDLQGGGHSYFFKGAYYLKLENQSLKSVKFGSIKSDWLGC

inhibition [1] | inhibition [3] | inhibition [4] | inhibition [5] | inhibition [8] | Ki [9] | inhibition [12] | inhibition [13] | SMILES | other results
86% | 7.4% | 38% | 67% | 48% | – | – | – | NS(=O)(=O)c1ccc(CCNc2ccn(O)c(=O)n2)cc1 | inhibition [2]: 19.6%; inhibition [6]: 9%; inhibition [7]: 6%
– | – | – | – | – | 3.4 nM | – | – | NS(=O)(=O)c1ccc(NC(=O)CCCNc2ccn(O)c(=O)n2)cc1 | –
– | 22% | 29% | 26% | 28% | – | 9% | 6% | NCCCCNc1ccn(O)c(=O)n1 | inhibition [10]: 88%; inhibition [11]: 30%; inhibition [14]: 1%
– | – | – | – | – | 4.1 nM | – | – | NS(=O)(=O)c1ccc(CCNC(=O)CCCCCNc2ccn(O)c(=O)n2)cc1 | –
24% | 9% | 30% | 23% | 42% | – | 1% | 3% | NCCCCCNc1ccn(O)c(=O)n1 | inhibition [15]: 3%
– | – | – | – | – | > 1000 nM | – | – | COC(=O)CCCCCNc1ccn(O)c(=O)n1 | Ki [16]: 270 µM
